In publication PMC9241057, “Ru(II)arene(N^N bpy/phen)-based RAPTA complexes for in vitro anti-tumour activity in human glioblastoma cancer cell lines and in vivo toxicity studies in a zebrafish model” (RSC Advances, 2022):

What was measured:
Ct-DNA = assay: DNA binding study, UV-visible absorption titration; design: species or system calf
Protocol: The DNA binding proficiency of RAPTA complexes was explored by applying the concept of electronic absorption titration. The binding propensity of the RAPTA complex, 4c with Ct-DNA, was investigated using UV-visible studies. […] From the plot of [DNA]/(εa − εf) vs. [DNA] the intrinsic binding constant (Kb) was recognized for the specified 4c–DNA conjugate.
The binding capability of the complexes with calf-thymus DNA (Ct-DNA) was evaluated using electronic absorption spectroscopy, and the competitive binding assay was studied using ethidium bromide (EtBr) as a quencher by fluorescence spectroscopy.
The DNA binding experiment was performed in aqueous medium using RAPTA complex 4c in Tris-HCl buffer (5 mM Tris-HCl in water, pH 7.4). The concentration of Ct-DNA was determined using its absorbance at 260 nm and a known molar absorption coefficient of 6600 M-1.cm-1. In cuvettes, an equal amount of DNA was introduced to both the sample and the reference. […] The sample was equilibrated with CT-DNA for around 5 minutes before each measurement, and then the complex's absorbance was measured. The intrinsic DNA binding constant (K b) was calculated using the equation (i): […]
UV and Fluorescence study
All of these RAPTA complexes were studied in a 10% DMSO solution using UV and fluorescence. […] Quantum yield was calculated according to the equation (ii): […]

[1] = n-Octanol/water partition coefficient, shake-flask method
Protocol: n-Octanol–water partition coefficient (log P o/w)8
Using the previously reported shake flask approach, the log Po/w of the RAPTA complexes
followed the previously described procedure. An orbital shaker was used to shake a known
amount of each complexes in water (pre-saturated with n-octanol). The solution was
centrifuged at 3000 rpm for 10 minutes to allow phase separation. Different ratios (0.5:1, 1:1,
and 2:1) of saturated solutions were shaken for 20 minutes on an orbital shaker with pre-
saturated n-octanol to get the partition coefficient. The absorbance of aliquots of the aqueous
and octanol layers were measured with a UV-Vis spectrophotometer after adequate dilution.
The concentrations of the complexes in each layer were estimated using the corresponding
molar extinction coefficients, and the partition coefficient (log Po/w) values were computed

EtBr-bound DNA (Ct-DNA) = assay: EtBr displacement assay (fluorescence); type: binding, calf; details: for Ksv, Stern-Volmer quenching constant: EtBr-bound DNA; for Kapp, apparent DNA binding constant: competitive displacement of EtBr
Protocol: Ethidium bromide displacement assay […]
bromide (EtBr) displacement experiment was used.3 Using ethidium bromide (EtBr) as a spectral probe in 5 mM Tris-HCl buffer, the apparent binding constant (K app) of the RAPTA complex 4c to Ct-DNA was determined at pH = 7.4. Because the fluorescence of EtBr was quenched by the solvent molecules, it was unable to show any fluorescence in its free state.
However, in the presence of Ct-DNA, its fluorescence intensity began to increase, indicating that EtBr binds to DNA […] in an intercalative manner. With increasing concentrations of […]
complexes displaced EtBr from CT-DNA grooves and were linked to the DNA base pairs itself. The values of the apparent binding constant (K app) were obtained by using the equation […]
Kapp × [Complex]50 = kEtBr × [EtBr]⋯⋯⋯(iii)
Where KEtBr is the EtBr binding constant (K EtBr = 1.0 x 107 M-1), and [EtBr] = 8 x 10^-6 M.
Stern-Volmer equation was followed for quantitative determination of the Stern-Volmer quenching constant (K SV).4 Origin (8.5) software was used to plot the fluorescence data to obtain linear plot of I0/I vs. [complex]. The value of KSV was calculated from the following […]
Where I0 = fluorescence intensity in absence of complex and I = fluorescence intensities in presence of complex of concentration [Q]. […]

zebrafish embryos = details: embryos exposed for 5 h to 100 μM
Protocol: Zebrafish were purchased from Zebrafish CRO, Pentagrit Discovery, Chennai 600100. All the procedures were conducted with reference to the guidelines of OECD 203 (OECD 203, 1992).[29] The local wild-type zebrafish strain weighing approximately 500–600 mg (2–3 months old) were maintained under standard laboratory conditions at 28 °C under a 14 : 10 h light/dark cycle with the conductivity of the water being 350 μS, maintained at pH 7.2–7.4. All the animal experiments including surgical procedures were conducted according to the procedures of the Committee for the Purpose of Control and Supervision of Experiments on Animals (CPCSEA), Govt. of India, as instructed by Institutional Animal ethical guidelines (VIT/IAEC/2019/16/Aug10/15), VIT University.[29] All animal procedures were performed in accordance with the Guidelines for Care and Use of Laboratory Animals of “VIT” University and approved by the Animal Ethics Committee of “VIT”.
Freshly laid eggs [<1 h post-fertilisation (hpf)] were transferred to 50 ml crystallising dishes filled with the respective test solutions. After the successful control of fertilisation, the eggs were separately transferred to 24-well plates with 2 ml of test solution per well. […] The embryos were analysed under an Olympus CKX41 inverted microscope (Olympus, Hamburg, Germany).

U87MG cells = assay: Cell cycle analysis by flow cytometry; type: cell-based, human; details: 0.93 μM
Protocol: As per the results of the MTT assay, there was an inhibition of cell proliferation that was further validated by determining the cellular damage, DNA damage and oxidative stress. Therefore, we went forward to investigate the DNA content by flow cytometry. […] We also observed a low S phase and M phase after the complex treatment (Fig. 4).
Fig. 4 Cell cycle analysis with the control U87MG cells (above) and the treatment of 0.93 μM 4d (below). TEXT PRINTED IN THE PICTURE: 4d: G0-G1(70.49%); S(21.32%); M(2.49%); Sub G1(3.48%) DOUBTS OF THE COPYIST ABOUT THIS PICTURE: 4d, G0-G1: 70.49% - blurred print, 9 could be 8 / 4d, S: 21.32% - blurred print, 3 could be 8 / 4d, M: 2.49% - blurred print, 9 could be 8 / 4d, Sub G1: 3.48% - blurred print, 3 and 8 not certain (3.46 or 3.48) / The Control plots (untreated cells, not a substance) print P2(43.61%), P3(29.04%), P4(24.36%), Sub G1(6.24%); these are left out of the lines, and their digits are blurred too

SMILES: C1N2CN3CN1CP(C2)C3.Cc1ccc(C(C)C)cc1.Cc1ccnc2c1ccc1c(C)ccnc12.F[P-](F)(F)(F)(F)F.F[P-](F)(F)(F)(F)F.[Ru+2] [4c, [(η^6-p-Cymene)Ru^II(κ^2-N,N-4,7dimethylphenanthroline)(PTA)]·2PF6]
- Change in absorbance (Ct-DNA): Hyperchromism
- Δε (%), % of hyperchromism/hypochromism (Ct-DNA): 50%
- log P (partition coefficient in n-octanol/water) [1]: 0.30±0.04
- Ksv, Stern-Volmer quenching constant (EtBr-bound DNA (Ct-DNA)): 180 M⁻¹
- Ksv, Stern-Volmer quenching constant (EtBr-bound DNA (Ct-DNA); Table S2): 180 M⁻¹
- Kapp, apparent DNA binding constant (EtBr-bound DNA (Ct-DNA)): 1.38e+06 M⁻¹
- Kapp, apparent DNA binding constant (EtBr-bound DNA (Ct-DNA); Table S2): 1.38e+06 M⁻¹
- morbidity or mortality of embryos (zebrafish embryos): No significant morbidity or mortality

SMILES: C1N2CN3CN1CP(C2)C3.Cc1ccc(C(C)C)cc1.F[P-](F)(F)(F)(F)F.F[P-](F)(F)(F)(F)F.[Ru+2].c1ccc(-c2ccnc3c2ccc2c(-c4ccccc4)ccnc23)cc1 [4d, [(η^6-p-Cymene)Ru^II(κ^2-N,N-4,7diphenylphenanthroline)(PTA)]·2PF6]
- G0/G1 phase (U87MG cells): ~70.49%
